Assay [1] relates to Hep3B cells. The assay can be described thus: MTS cell viability assay, Hep3B cells. The class given is cell-based, Human. The conditions noted are these: 48 hours. Here is the method:
(§1) Human hepatocellular cancer cell lines, HepG2 (HB-8065, ATCC), Hep3B (HB-8064, ATCC) and HUVEC (CRL-1730) cells are cultured in a growth medium (2 mM L-glutamine, 100 U/ml penicillin, 100 µg/ml streptomycin) of Dulbecco's modified Eagle's medium (DMEM) containing 10% heat inactivated FBS in a humidified atmosphere at 37° C. with 5% CO2. Cells are passaged at 3-day intervals.
(§2) (NaB: B5H10NaO13), Curcumin (Sigma, C1386), and Piperine (Sigma, P49007). At the end of 24, 48 and 72 hours, cell viability were measured. Cell viability assay was performed by 3-(4,5-di-methyl-thiazol-2-yl)-5-(3-carboxy-methoxy-phenyl)-2-(4-sulfo-phenyl)-2H-tetrazolium (MTS) method (CellTiter96 AqueousOne Solution; Promega, Southampton, UK) following the manufacturer's protocol. After 2 hours of incubation time, the cell viability assay is conducted by measuring at 490 nm using an ELISA microplate reader (Bio-tek ELx800, USA). IC50 value for 48 hours was calculated.
(§3) The combination index (CI) is used to determine the degree of drug interaction. The concentration of inhibition in the combination is the sum of the ratio of the dose of each drug to the dose of each drug used alone. […] The formalization is as follows:
(§4) [formula] • (Dx)1, (Dx)2: Individual IC50 values of the substances • (D)1, (D)2: Concentrations of substances in the combination

The subject of a further assay is HepG2 cells. The assay can be described thus: MTS cell viability assay, HepG2 cells. Type of assay: cell-based, Human. To be noted: 48 hours. The method, then: as §1, §2, §3, §4
For assay [2], the system named is Hep3B cells. The conditions noted are these: literature study [20]; cited from earlier work.

Take `COc1cc(/C=C/C(=O)CC(=O)/C=C/c2ccc(O)c(OC)c2)ccc1O` [curcumin]: the IC50 in the assay with Hep3B cells [1] (Homo sapiens) stood at 41.4 µM; in the assay with HepG2 cells (Homo sapiens), 44.8 µM.
On the same counts, the results for `O=C(/C=C/C=C/c1ccc2c(c1)OCO2)N1CCCCC1` [piperine] are above 150 µM and above 150 µM.
Take sodium pentaborate pentahydrate: the concentration for half-maximal inhibition (IC50) in the assay on Hep3B cells [1] stood at 6560 µM; with HepG2 cells, 7660 µM. In addition, in the assay on Hep3B cells [2], the “proliferation of Hep3B cells” value is “decreased the proliferation of Hep3B cells”.

Source of the values: US20250228890A1, “ANTI-CANCER FORMULATION COMPRISING SODIUM PENTABORATE, CURCUMIN AND PIPERINE FOR USE IN THE TREATMENT OF HEPATOCELLULAR CARCINOMA” (Yeditepe Universitesi, priority 2022, published 2025).
